# Data reported in paper PMC10178848, “Modulating fast skeletal muscle contraction protects skeletal muscle in animal models of Duchenne muscular dystrophy” (The Journal of Clinical Investigation, 2023).
# Tested on: mdx mouse EDL muscle
# Test: Phosphoprotein array analysis (Cell Signaling Phospho Antibody Array)
# Description: mdx mouse EDL muscle was prepared for ex vivo analysis as described (n = 5). Muscles were incubated for 1 hour with DMSO or EDG-5506 (5 μM) and then flash frozen in liquid nitrogen. Tissue preparation and analysis were performed as recommended by the manufacturer (Cell Signaling Phospho Antibody Array, Full Moon Biosystems).
structure (smiles),measurement,setting,value
O=c1ccc(-c2cnc(OCC(F)(F)F)nc2)nn1Cc1cncc(F)c1 [EDG-5506],Fold Change T/C: PPAR-gamma (Ab-112),"5 μM, 1 hour",1.49
same,Fold Change T/C: PPAR-gamma (Phospho-Ser112),"5 μM, 1 hour",1.26
same,Fold Change T/C: PTEN (Ab-380),"5 μM, 1 hour",1.13
same,Fold Change T/C: Raf1 (Ab-43),"5 μM, 1 hour",0.90
same,Fold Change T/C: Rb (Ab-807),"5 μM, 1 hour",2.11
same,Fold Change T/C: Rb (Phospho-Ser807),"5 μM, 1 hour",0.91
same,Fold Change T/C: RelB (Phospho-Ser552),"5 μM, 1 hour",0.76
same,Fold Change T/C: SAPK/JNK (Phospho-Tyr185),"5 μM, 1 hour",0.84
same,Fold Change T/C: SHP-2 (Phospho-Tyr542),"5 μM, 1 hour",0.91
same,Fold Change T/C: SRF (Ab-99),"5 μM, 1 hour",1.97
same,Fold Change T/C: STAT3 (Ab-705),"5 μM, 1 hour",1.05
same,Fold Change T/C: STAT3 (Phospho-Tyr705),"5 μM, 1 hour",0.92
same,Fold Change T/C: STAT4 (Phospho-Tyr693),"5 μM, 1 hour",1.04
same,Fold Change T/C: STAT5A (Ab-780),"5 μM, 1 hour",0.86
same,Fold Change T/C: STAT6 (Ab-645),"5 μM, 1 hour",1.12
same,Fold Change T/C: STAT6 (Phospho-Thr645),"5 μM, 1 hour",0.89
same,Fold Change T/C: SYK (Ab-525),"5 μM, 1 hour",0.99
same,Fold Change T/C: SYK (Phospho-Tyr348),"5 μM, 1 hour",0.91
same,Fold Change T/C: Shc (Ab-349),"5 μM, 1 hour",0.62
same,Fold Change T/C: Smad1 (Ab-465),"5 μM, 1 hour",0.82
same,Fold Change T/C: Smad1 (Phospho-Ser187),"5 μM, 1 hour",1.60
same,Fold Change T/C: Smad2 (Ab-255),"5 μM, 1 hour",2.57
same,Fold Change T/C: Smad2 (Phospho-Ser467),"5 μM, 1 hour",1.00
same,Fold Change T/C: Smad2/3 (Phospho-Thr8),"5 μM, 1 hour",1.25
same,Fold Change T/C: Smad3 (Ab-425),"5 μM, 1 hour",0.52
same,Fold Change T/C: Smad3 (Phospho-Ser213),"5 μM, 1 hour",1.26
same,Fold Change T/C: Src (Ab-418),"5 μM, 1 hour",1.70
same,Fold Change T/C: Src (Phospho-Tyr418),"5 μM, 1 hour",0.77
same,Fold Change T/C: TGFBR2 (Ab-250),"5 μM, 1 hour",0.90
same,Fold Change T/C: Tau (Ab-235),"5 μM, 1 hour",1.98
same,Fold Change T/C: Tau (Phospho-Ser396),"5 μM, 1 hour",0.90
same,Fold Change T/C: Trk B (Ab-515),"5 μM, 1 hour",1.53
same,Fold Change T/C: Tubulin-b,"5 μM, 1 hour",1.09
same,Fold Change T/C: VASP (Ab-157),"5 μM, 1 hour",1.26
same,Fold Change T/C: VEGFR2 (Ab-1214),"5 μM, 1 hour",1.07
same,Fold Change T/C: VEGFR2 (Phospho-Tyr1175),"5 μM, 1 hour",0.84
same,Fold Change T/C: Zap-70 (Ab-319),"5 μM, 1 hour",1.12
same,Fold Change T/C: Zap-70 (Phospho-Tyr319),"5 μM, 1 hour",1.04
same,Fold Change T/C: c-Abl (Ab-412),"5 μM, 1 hour",0.93
same,Fold Change T/C: c-Jun (Ab-243),"5 μM, 1 hour",1.03
same,Fold Change T/C: c-Jun (Phospho-Ser73),"5 μM, 1 hour",0.91
same,Fold Change T/C: eEF2K (Ab-366),"5 μM, 1 hour",2.10
same,Fold Change T/C: eIF2A (Ab-51),"5 μM, 1 hour",0.86
same,Fold Change T/C: eNOS (Ab-1179),"5 μM, 1 hour",0.92
same,Fold Change T/C: p44/42 MAP Kinase (Phospho-Tyr204),"5 μM, 1 hour",0.88
same,Fold Change T/C: p53 (Ab-315),"5 μM, 1 hour",1.69
same,Fold Change T/C: p53 (Phospho-Ser15),"5 μM, 1 hour",0.20
same,"changes in implicated signaling pathways (Akt, IGF1, LTBP4/TGF-β)","5 μM, 1 hour",no consistent changes in implicated pathways
same,Average Signal of Replicate Spots: 4E-BP1 (Phospho-Thr45),4000031744 (T),3952
same,Average Signal of Replicate Spots: 14-3-3 theta/tau (Phospho-Ser232),4000031744 (T),1343
same,Average Signal of Replicate Spots: ACC1 (Phospho-Ser80),4000031744 (T),1068
same,Average Signal of Replicate Spots: AMPKbeta1 (Phospho-Ser182),4000031744 (T),1111
same,Average Signal of Replicate Spots: B-RAF (Phospho-Ser446),4000031744 (T),1461
same,Average Signal of Replicate Spots: BAX (Phospho-Thr167),4000031744 (T),923
same,Average Signal of Replicate Spots: BCL-XL (Phospho-Ser62),4000031744 (T),3298
same,Average Signal of Replicate Spots: BLNK (Phospho-Tyr96),4000031744 (T),811
same,Average Signal of Replicate Spots: CBL (Phospho-Tyr700),4000031744 (T),1571
same,Average Signal of Replicate Spots: CDK1/CDC2 (Phospho-Tyr15),4000031744 (T),1071
same,Average Signal of Replicate Spots: CREB (Phospho-Ser133),4000031744 (T),971
same,Average Signal of Replicate Spots: CaMK2-beta/gamma/delta (Phospho-Thr287),4000031744 (T),1442
same,Average Signal of Replicate Spots: CaMK2A (Phospho-Thr286),4000031744 (T),1017
same,Average Signal of Replicate Spots: Caspase 8 (Phospho-Ser347),4000031744 (T),1275
same,Average Signal of Replicate Spots: Caspase 9 (Phospho-Ser196),4000031744 (T),3581
same,Average Signal of Replicate Spots: Catenin beta (Phospho-Thr41/Ser45),4000031744 (T),1080
same,Average Signal of Replicate Spots: Chk2 (Phospho-Thr68),4000031744 (T),787
same,Average Signal of Replicate Spots: Cyclin D1 (Phospho-Thr286),4000031744 (T),2969
same,Average Signal of Replicate Spots: Cyclin E1 (Phospho-Thr77),4000031744 (T),1889
same,Average Signal of Replicate Spots: DARPP-32 (Phospho-Thr34),4000031744 (T),1112
same,Average Signal of Replicate Spots: EEF2 (Phospho-Thr56),4000031744 (T),1593
same,Average Signal of Replicate Spots: FADD (Phospho-Ser194),4000031744 (T),2520
same,Average Signal of Replicate Spots: FAK (Phospho-Ser910),4000031744 (T),1946
same,Average Signal of Replicate Spots: FGFR1 (Phospho-Tyr654),4000031744 (T),2920
same,Average Signal of Replicate Spots: GRK2 (Phospho-Ser29),4000031744 (T),1817
same,Average Signal of Replicate Spots: GSK3 alpha/beta (Phospho-Tyr216/279),4000031744 (T),1223
same,Average Signal of Replicate Spots: Gab2 (Phospho-Tyr643),4000031744 (T),5234
same,Average Signal of Replicate Spots: HDAC1 (Phospho-Ser421),4000031744 (T),1842
same,Average Signal of Replicate Spots: HDAC2 (Phospho-Ser394),4000031744 (T),1737
same,Average Signal of Replicate Spots: HSP90B (Phospho-Ser226),4000031744 (T),2514
same,Average Signal of Replicate Spots: IKK-beta (Phospho-Tyr188),4000031744 (T),1332
same,Average Signal of Replicate Spots: IKK-beta (Phospho-Tyr199),4000031744 (T),1363
same,Average Signal of Replicate Spots: IKK-gamma (Phospho-Ser31),4000031744 (T),1172
same,Average Signal of Replicate Spots: IL-4R/CD124 (Phospho-Tyr497),4000031744 (T),1616
same,Average Signal of Replicate Spots: IL-10R-alpha (Phospho-Tyr496),4000031744 (T),1513
same,Average Signal of Replicate Spots: IkB-alpha (Phospho-Ser32/36),4000031744 (T),10513
same,Average Signal of Replicate Spots: Integrin beta-3 (Phospho-Tyr773),4000031744 (T),1072
same,Average Signal of Replicate Spots: JunB (Phospho-Ser259),4000031744 (T),1085
same,Average Signal of Replicate Spots: LYN (Phospho-Tyr507),4000031744 (T),1395
same,Average Signal of Replicate Spots: Lamin A/C (Phospho-Ser392),4000031744 (T),969
same,Average Signal of Replicate Spots: MEK1 (Phospho-Ser217),4000031744 (T),790
same,Average Signal of Replicate Spots: NFkB-p65 (Phospho-Ser311),4000031744 (T),1154
same,Average Signal of Replicate Spots: NFkB-p100/p52 (Phospho-Ser865),4000031744 (T),1360
same,Average Signal of Replicate Spots: P38 MAPK (Phospho-Thr180/Tyr182),4000031744 (T),2391
same,Average Signal of Replicate Spots: P70S6K (Phospho-Ser424),4000031744 (T),1169
same,Average Signal of Replicate Spots: P90RSK (Phospho-Thr359/Ser363),4000031744 (T),1665
same,Average Signal of Replicate Spots: PDK1 (Phospho-Ser241),4000031744 (T),2037
same,Average Signal of Replicate Spots: PLCG1 (Phospho-Tyr783),4000031744 (T),8981
same,Average Signal of Replicate Spots: PLK1 (Phospho-Thr210),4000031744 (T),732
same,Average Signal of Replicate Spots: PP2A-alpha (Phospho-Tyr307),4000031744 (T),1166
same,Average Signal of Replicate Spots: PPAR-gamma (Phospho-Ser112),4000031744 (T),1480
same,Average Signal of Replicate Spots: Rb (Phospho-Ser807),4000031744 (T),1194
same,Average Signal of Replicate Spots: RelB (Phospho-Ser552),4000031744 (T),3212
same,Average Signal of Replicate Spots: SAPK/JNK (Phospho-Tyr185),4000031744 (T),1041
same,Average Signal of Replicate Spots: SHP-2 (Phospho-Tyr542),4000031744 (T),1268
same,Average Signal of Replicate Spots: STAT3 (Phospho-Tyr705),4000031744 (T),1079
same,Average Signal of Replicate Spots: STAT4 (Phospho-Tyr693),4000031744 (T),52519
same,Average Signal of Replicate Spots: STAT6 (Phospho-Thr645),4000031744 (T),1124
same,Average Signal of Replicate Spots: SYK (Phospho-Tyr348),4000031744 (T),1249
same,Average Signal of Replicate Spots: Smad1 (Phospho-Ser187),4000031744 (T),2057
same,Average Signal of Replicate Spots: Smad2 (Phospho-Ser467),4000031744 (T),1265
same,Average Signal of Replicate Spots: Smad2/3 (Phospho-Thr8),4000031744 (T),2539
same,Average Signal of Replicate Spots: Smad3 (Phospho-Ser213),4000031744 (T),1879
same,Average Signal of Replicate Spots: Src (Phospho-Tyr418),4000031744 (T),10867
same,Average Signal of Replicate Spots: Tau (Phospho-Ser396),4000031744 (T),1057
same,Average Signal of Replicate Spots: VEGFR2 (Phospho-Tyr1175),4000031744 (T),1051
same,Average Signal of Replicate Spots: Zap-70 (Phospho-Tyr319),4000031744 (T),1504
same,Average Signal of Replicate Spots: c-Jun (Phospho-Ser73),4000031744 (T),1180
same,Average Signal of Replicate Spots: p44/42 MAP Kinase (Phospho-Tyr204),4000031744 (T),1035
same,Average Signal of Replicate Spots: p53 (Phospho-Ser15),4000031744 (T),1903
same,Data Normalized to Median Signal: 4E-BP1 (Phospho-Thr45),4000031744 (T),3.29
same,Data Normalized to Median Signal: 14-3-3 theta/tau (Phospho-Ser232),4000031744 (T),1.12
same,Data Normalized to Median Signal: ACC1 (Phospho-Ser80),4000031744 (T),0.89
same,Data Normalized to Median Signal: AMPKbeta1 (Phospho-Ser182),4000031744 (T),0.93
same,Data Normalized to Median Signal: B-RAF (Phospho-Ser446),4000031744 (T),1.22
same,Data Normalized to Median Signal: BCL-XL (Phospho-Ser62),4000031744 (T),2.75
same,Data Normalized to Median Signal: BLNK (Phospho-Tyr96),4000031744 (T),0.68
same,Data Normalized to Median Signal: CBL (Phospho-Tyr700),4000031744 (T),1.31
